Molecules are shown by their SMILES. Read-outs that look alike come from different tables or passages of the source. Some results are limits rather than exact numbers.

For assay [1], the system named is LNCaP/AR cells. Put plainly: Inhibition of proliferation of LNCaP/AR prostate cancer cells (CCK-8). It is filed as cell-based.
Assay [2] addresses T1, androgen receptor (AR) (Homo sapiens, UniProt P10275).
T1 sequence (P10275 1-920): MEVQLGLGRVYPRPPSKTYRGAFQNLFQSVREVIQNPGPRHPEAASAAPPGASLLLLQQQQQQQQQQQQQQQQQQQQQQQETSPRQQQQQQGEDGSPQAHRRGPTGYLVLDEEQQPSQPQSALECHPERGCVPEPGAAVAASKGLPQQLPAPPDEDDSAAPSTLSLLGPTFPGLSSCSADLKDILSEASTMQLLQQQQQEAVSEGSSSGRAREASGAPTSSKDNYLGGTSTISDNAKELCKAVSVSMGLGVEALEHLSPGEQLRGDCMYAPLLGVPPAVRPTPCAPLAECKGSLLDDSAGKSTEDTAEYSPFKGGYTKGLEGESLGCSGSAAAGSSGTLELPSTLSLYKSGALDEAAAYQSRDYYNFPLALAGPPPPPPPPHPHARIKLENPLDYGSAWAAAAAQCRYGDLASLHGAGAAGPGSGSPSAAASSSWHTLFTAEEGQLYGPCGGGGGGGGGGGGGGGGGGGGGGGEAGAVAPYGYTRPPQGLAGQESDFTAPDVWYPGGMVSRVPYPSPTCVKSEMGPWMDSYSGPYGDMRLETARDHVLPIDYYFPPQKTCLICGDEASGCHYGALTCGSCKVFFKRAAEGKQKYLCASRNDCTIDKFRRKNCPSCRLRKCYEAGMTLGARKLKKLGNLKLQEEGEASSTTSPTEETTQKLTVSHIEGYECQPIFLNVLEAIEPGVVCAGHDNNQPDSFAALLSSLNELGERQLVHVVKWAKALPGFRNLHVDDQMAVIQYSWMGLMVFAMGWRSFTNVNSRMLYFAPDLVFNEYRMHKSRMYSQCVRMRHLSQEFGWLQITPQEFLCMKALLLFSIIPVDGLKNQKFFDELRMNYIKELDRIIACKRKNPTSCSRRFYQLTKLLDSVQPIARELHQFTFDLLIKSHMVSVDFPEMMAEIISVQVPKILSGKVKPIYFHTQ
Put plainly: Degradation of androgen receptor (AR) protein in VCaP cells by ELISA. It is filed as cell-based. The settings on record: for inhibition at 0.1 µM: read-out: % degradation.

The mark [3] stands for this setting: 144 h, proliferation of LNCap/AR cells, 6 days, CCK-8, read-out: IC50.
The mark [4] stands for this setting: percentage of degraded AR at 100 nM, VCaP cells, 16 h, ELISA.

Regarding `Cc1ncsc1-c1ccc([C@H](C)NC(=O)[C@@H]2C[C@@H](O)CN2C(=O)[C@@H](NC(=O)CCn2cc(C#Cc3ccc4c(c3)CN([C@H]3C(C)(C)[C@H](Oc5ccc(C#N)c(Cl)c5)C3(C)C)C4=O)cn2)C(C)(C)C)cc1` [Compound 42], the IC50 (in general, the concentration at which inhibition is half-maximal) in assay [1] (setting [3]) was under 100 nM. Further, the inhibition at 0.1 µM in assay [2] (setting [4]) was in the range of 50 to 79%.

`Cc1ncsc1-c1ccc([C@H](C)NC(=O)[C@@H]2C[C@@H](O)CN2C(=O)[C@@H](NC(=O)CN2CC(CC#Cc3ccc4c(c3)CN([C@H]3C(C)(C)[C@H](Oc5ccc(C#N)c(Cl)c5)C3(C)C)C4=O)C2)C(C)(C)C)cc1` [Compound 43]: the IC50 in assay [1] (setting [3]) was under 100 nM. For the same compound, the inhibition at 0.1 µM in assay [2] (setting [4]) fell in the range of 50 to 79%.

For `CC(=O)O[C@@H]1CC(C(=O)NC2(c3ccc(-c4scnc4C)cc3)CC2)N(C(=O)[C@@H](NC(=O)COCCCCCNc2ccc(C(=O)N[C@H]3C(C)(C)[C@H](Oc4ccc(C#N)c(Cl)c4)C3(C)C)cc2)C(C)(C)C)C1` (stereo partly drawn) [Compound 46, (3R,5S)-1-((S)-2-(2-((5-((4-(((1r,3r)-3-(3-chloro-4-cyanophenoxy)-2,2,4,4-tetramethylcyclobutyl)carbamoyl)phenyl)amino)pentyl)oxy)acetamido)-3,3-dimethylbutanol)-5-((1-(4-methylthiazol-5-yl)phenyl)cyclopropyl)carbamoyl) pyrrolidin-3-yl acetate], in assay [1] (LNCaP/AR, 144 h), the IC50 is under 100 nM. Further, the inhibition at 0.1 µM in assay [2] (VCaP, 16 h) was 25 to 49%.

Regarding `Cc1ncsc1-c1ccc(C2(NC(=O)C3C[C@@H](O)CN3C(=O)[C@@H](NC(=O)COCCCCCNc3ccc(C(=O)N[C@H]4C(C)(C)[C@H](Oc5ccc(C#N)c(Cl)c5)C4(C)C)cc3)C(C)(C)C)CC2)cc1` (stereo partly drawn) [Compound 47], the IC50 in assay [1] (setting [3]) is under 100 nM. For the same compound, in assay [2] (setting [4]), the inhibition at 0.1 µM lay within 50 to 79%.

`Cc1ncsc1-c1ccc([C@H](CO)NC(=O)[C@@H]2C[C@@H](O)CN2C(=O)[C@@H](NC(=O)COCCCCC#Cc2ccc3c(c2)CN([C@H]2C(C)(C)[C@H](Oc4ccc(C#N)c(Cl)c4)C2(C)C)C3=O)C(C)(C)C)cc1` [Compound 48, (2S,4R)-1-((S)-2-(2-((6-(2-(((1r,3r)-3-(3-chloro-4-cyanophenoxy))-2,2,4,4-tetramethylcyclobutyl)-1-oxoisoindolin-5-yl)hex-5-yn-1-yl)oxy)acetamido)-3,3-dimethylbutyryl)-4-hydroxy-N-((R)-2-hydroxy-1-(4-(4-methylthiazol-5-yl)phenyl)ethyl)pyrrolidine-2-carboxamide]: the IC50 in assay [1] (setting [3]) is under 100 nM. In addition, the inhibition at 0.1 µM in assay [2] (setting [4]) was over 80%.

In assay [1] (LNCaP/AR, 144 h), `CC(=O)O[C@@H]1C[C@@H](C(=O)N[C@@H](CO)c2ccc(-c3scnc3C)cc2)N(C(=O)[C@@H](NC(=O)COCCCCC#Cc2ccc3c(c2)CN([C@H]2C(C)(C)[C@H](Oc4ccc(C#N)c(Cl)c4)C2(C)C)C3=O)C(C)(C)C)C1` [Compound 49, (3R,5S)-1-((S)-2-(2-((6-(2-(((1r,3r)-3-(3-chloro-4-cyanophenoxy))-2,2,4,4-tetramethylcyclobutyl)-1-oxoisoindolin-5-yl)hex-5-yn-1-yl)oxy)acetamido)-3,3-dimethylbutyryl)-5-(((R)-2-hydroxy-1-(4-(4-methylthiazol-5-yl)phenyl)ethyl)carbamoyl)pyrrolidin-3-yl acetate] registered an IC50 of under 100 nM. For the same compound, the inhibition at 0.1 µM in assay [2] (setting [4]) was 25 to 49%.

As for `CC1(C)[C@H](Oc2ccc(C#N)c(Cl)c2)C(C)(C)[C@H]1N1Cc2cc(C#CC3CCN(C4CCN(c5cc6c(cc5F)C(=O)N(C5CCC(=O)NC5=O)C6=O)CC4)CC3)ccc2C1=O` (stereo partly drawn) [Compound 51], in assay [1] (setting [3]), the IC50 lay in the range of 100 to 500 nM. In addition, the inhibition at 0.1 µM in assay [2] (setting [4]) was 50 to 79%.

Regarding `N#Cc1ccc(O[C@H]2CC[C@H](N3Cc4nc(N5CC[C@@H](CN6CCN(c7cc8c(cc7F)CN(C7CCC(=O)NC7=O)C8=O)CC6)C5)ccc4C3=O)CC2)cc1Cl` (stereo partly drawn) [Compound 54], the IC50 in assay [1] (setting [3]) is over 1000 nM. The inhibition at 0.1 µM in assay [2] (setting [4]) fell in the range of 25 to 49%.

On to `N#Cc1ccc(O[C@H]2CC[C@H](N3Cc4nc(N5CC[C@@H](CN6CCN(c7cc8c(cc7F)C(=O)N(C7CCC(=O)NC7=O)C8)CC6)C5)ccc4C3=O)CC2)cc1Cl` (stereo partly drawn) [Compound 55], for which, in assay [1] (setting [3]), the IC50 lay in the range of 100 to 500 nM. In addition, the inhibition at 0.1 µM in assay [2] (setting [4]) is 25 to 49%.

In assay [1], `N#Cc1ccc(O[C@H]2CC[C@H](N3Cc4nc(N5CCC(CN6CCN(c7ccc8c(c7)C(=O)N(C7CCC(=O)NC7=O)C8=O)CC6)CC5)ccc4C3=O)CC2)cc1Cl` (stereo partly drawn) [Compound 57] had an IC50 of over 1000 nM. In addition, the “% degradation” value in assay [2] is “D (key: A: >80%; B: 79%-50%; C: 49%-25%; D: <25%)”.

On to `N#Cc1ccc(O[C@H]2CC[C@H](N3Cc4nc(N5CCC(OC6CCN(c7ccc8c(c7)C(=O)N(C7CCC(=O)NC7=O)C8=O)CC6)CC5)ccc4C3=O)CC2)cc1Cl` (stereo partly drawn) [Compound 60, 2-chloro-4-(((1r,4r)-4-(2-(4-((1-(2-(2,6-dioxopiperidin-3-yl)-1,3-dioxoisoindolin-5-yl)piperidine-4-yl)oxy)piperidin-1-yl)-5-oxo-5H-pyrrolo[3,4-b]pyridin-6(7H)-yl)cyclohexyl)oxy)benzonitrile], for which the IC50 in assay [1] (setting [3]) was over 1000 nM. The inhibition at 0.1 µM in assay [2] (setting [4]) was under 25%.

In the case of `CC1(C)[C@H](Oc2ccc(C#N)c(Cl)c2)C(C)(C)[C@H]1N1Cc2nc(N3CCC(CN4CCN(c5cc6c(cc5F)C(=O)N(C5CCC(=O)NC5=O)C6=O)CC4)CC3)ccc2C1=O` (stereo partly drawn) [Compound 198], in assay [1] (setting [3]), the half-inhibitory concentration (IC50) was in the range of 100 to 500 nM. Moreover, the inhibition at 0.1 µM in assay [2] (setting [4]) was 50 to 79%.

For `CC(C#Cc1ccc2c(c1)CN(C1C(C)(C)C(Oc3ccc(C#N)c(Cl)c3)C1(C)C)C2=O)N1CCN(c2cc3c(cc2F)C(=O)N(C2CCC(=O)NC2=O)C3=O)CC1` (stereo not drawn) [Compound 199, 2-chloro-4-((1r,3r)-3-(5-(4-(2,6-dioxopiperidin-3-yl)-6-fluoro-1,3-dioxoisoindolin-5-yl)piperazin-1-yl)but-1-yn-1-yl)-1-oxoisoindolin-2-yl)-2,4,4-tetramethylcyclobutoxy)benzonitrile], the IC50 in assay [1] (proliferation of LNCap/AR cells, 6 days, CCK-8, read-out: IC50) was over 1000 nM. The “% degradation” value in assay [2] (setting [4]) was “D (<25%)”.

Take `N#Cc1ccc(O[C@H]2CC[C@H](N3Cc4nc(N5CCC(CN6CCN(c7cc8c(cc7F)C(=O)N(C7CCC(=O)NC7=O)C8=O)CC6)CC5)ccc4C3=O)CC2)cc1Cl` (stereo partly drawn) [Compound 200]: the IC50 in assay [1] (setting [3]) is over 1000 nM. Further, the inhibition at 0.1 µM in assay [2] (VCaP, 16 h) fell in the range of 50 to 79%.

As for `N#Cc1ccc(O[C@H]2CC[C@H](N3Cc4nc(N5CCC(CN6CCN(c7ccc8c(c7)C(=O)N(C7CCC(=O)NC7=O)C8=O)CC6)CC5)ccc4C3=O)CC2)cc1Cl` (stereo partly drawn) [Compound 201], the IC50 in assay [1] (setting [3]) is over 1000 nM. Besides, the inhibition at 0.1 µM in assay [2] (setting [4]) lay in the range of 50 to 79%.

Turning to `N#Cc1ccc(O[C@H]2CC[C@H](N3Cc4nc(N5CCC(CN6CCN(c7cc8c(cc7F)CN(C7CCC(=O)NC7=O)C8=O)CC6)CC5)ccc4C3=O)CC2)cc1Cl` (stereo partly drawn) [Compound 203], in assay [1] (setting [3]), the IC50 was over 1000 nM. The inhibition at 0.1 µM in assay [2] (setting [4]) was under 25%.

In the case of `N#Cc1ccc(O[C@H]2CC[C@H](N3Cc4nc(N5CCC(CN6CCN(c7cc8c(cc7F)C(=O)N(C7CCC(=O)NC7=O)C8)CC6)CC5)ccc4C3=O)CC2)cc1Cl` (stereo partly drawn) [Compound 204], the 50% inhibitory concentration (IC50) in assay [1] (setting [3]) was under 100 nM. Moreover, the inhibition at 0.1 µM in assay [2] (setting [4]) fell in the range of 50 to 79%.

`N#Cc1ccc(O[C@H]2CC[C@H](N3Cc4nc(N5CCN(CC6CCN(c7cc8c(cc7F)C(=O)N(C7CCC(=O)NC7=O)C8=O)CC6)CC5)ccc4C3=O)CC2)cc1Cl` (stereo partly drawn) [Compound 210]: the IC50 in assay [1] (setting [3]) is over 1000 nM. In assay [2] (setting [4]), the inhibition at 0.1 µM is under 25%.

Regarding `CC1(C)[C@H](NC(=O)c2ccc(N3CCC(CN4CCN(c5cc6c(cc5F)C(=O)N(C5CCC(=O)NC5=O)C6)CC4)CC3)nc2)C(C)(C)[C@H]1Oc1ccc(C#N)c(Cl)c1` (stereo partly drawn) [Compound 213], the IC50 in assay [1] (setting [3]) was over 1000 nM. Also, the inhibition at 0.1 µM in assay [2] (setting [4]) was in the range of 25 to 49%.

Take `[2H]C([2H])([2H])N(C(=O)c1ccc(N2CCC(CN3CCN(c4cc5c(cc4F)CN(C4CCC(=O)NC4=O)C5=O)CC3)CC2)nc1)[C@H]1C(C)(C)[C@H](Oc2ccc(C#N)c(Cl)c2)C1(C)C` (stereo partly drawn) [Compound 215, N-((1r,3r)-3-(3-chloro-4-cyanophenoxy)-2,2,4,4-tetramethylcyclobutyl)-6-(4-((4-(2-(2,6-dioxopiperidin-3-yl)-6-fluoro-3-oxoisoindolin-5-yl)piperazin-1-yl)methyl)piperidin-1-yl)-N-(methyl-d3)nicotinamide]: the IC50 in assay [1] (setting [3]) is over 1000 nM. Further, in assay [2] (setting [4]), the inhibition at 0.1 µM is under 25%.

Consider `[2H]C([2H])([2H])N(C(=O)c1ccc(N2CCC(CN3CCN(c4cc5c(cc4F)C(=O)N(C4CCC(=O)NC4=O)C5)CC3)CC2)nc1)[C@H]1C(C)(C)[C@H](Oc2ccc(C#N)c(Cl)c2)C1(C)C` (stereo partly drawn) [Compound 216, N-((1r,3r)-3-(3-chloro-4-cyanophenoxy)-2,2,4,4-tetramethylcyclobutyl)-6-(4-((4-(2-(2,6-dioxopiperidin-3-yl)-6-fluoro-1-oxoisoindolin-5-yl)piperazin-1-yl)methyl)piperidin-1-yl)-N-(methyl-d3)nicotinamide], for which, in assay [1] (setting [3]), the IC50 fell in the range of 100 to 500 nM. The inhibition at 0.1 µM in assay [2] (setting [4]) was over 80%.

These data come from patent publication US20230091225A1, “Bifunctional chimeric heterocyclic compounds for targeted degradation of androgen receptors and use thereof” (HINOVA PHARMACEUTICALS INC., priority 2019, published 2023).
